According to paper PMC7031302, “Design and synthesis of new energy restriction mimetic agents: Potent anti-tumor activities of hybrid motifs of aminothiazoles and coumarins” (Scientific Reports, 2020):
Where two headings read alike, the source gives them in different places.

Legend:
Assay type in all cases: cell-based, Human
HT-29 [1] = experiment: Glucose uptake assay, HT-29; settings: HT-29, 16 h treatment, dose-dependent
Source text: (§1) According to previous studies, ERMAs inhibited glucose utilization in cancer cells[13],[19]. Therefore, we investigated glucose uptake (Fig. 5A) upon treatment with 9b and 9f in HT-29 and HCT116 cells at different concentrations based on the IC50 of each compound. […] This effect is known to result in the accumulation of reactive oxygen species (ROS) and could play a role in glucose deprivation-induced cytotoxicity and oxidative stress in cancer cells. […] The observed increase in ROS levels could lead to oxidative stress and extensive cell death in the absence of NADPH detoxification.
CRC cells (1 × 10^4) were seeded into a 96-well plate overnight. Cells were treated with test compounds or vehicle (negative control) glucose-free RPMI-1640 medium for 16 h; then, the cells were incubated with 2 mM 2-DG for 10 minutes. Eventually, glucose uptake of cells was measured using Glucose Uptake-Glo Assay (Promega, Madison, WI, USA) according to the manufacturer’s instructions. Luminescence was measured post 2 h of incubation at room temperature using Varioskan Flash multimode reader (Thermo Scientific). Glucose uptake was normalized to the total protein content in the samples using DC protein assay kit (Bio-Rad, Hercules, CA, USA).

HT-29 [2] = experiment: MTT cell viability, HT-29; settings: 72 h, MTT assay, mean ± SD (n = 6), read-out: half-maximal inhibitory concentration (IC50) HT-29
Method: The potential cytotoxicity of 24 candidate compounds was initially evaluated at a single concentration level (5 μM). Then a full dose-response curve was plotted for each compound against different colorectal cancer cell lines (HCT116 and HT-29) by MTT assay after 72 h treatments. 4-hydroxycoumarin, OSU-CG5, and OSU-CG12 were used as positive controls. […] Compounds 9b, 9c, 9f, 9i, 11b, and 11c were selected for further studies to determine the full dose-response survival curves using different concentrations (0.1–20 µM) against CRC cell lines and normal fibroblast cell line (F180) at different time points (Fig. 2A–2F and supplementary material Page S63 and S64).
Human colorectal carcinoma cell lines (HCT116) and (HT-29) were obtained from the European Collection of Cell Cultures (ECACC, UK). The cell lines were cultured in Roswell Park Memorial Institute medium (RPMI-1640, Sigma-Aldrich-St. Louis, MO, USA) supplemented with 10% fetal bovine serum (Sigma-Aldrich-St. Louis, MO, USA) and 1% penicillin/streptomycin (Sigma-Aldrich- Louis, MO, USA). F180 cell line (Human Normal Fibroblast), was kindly given by professor Ekkehard Dikomey (University Cancer Center, Hamburg University, Hamburg, Germany) and were cultured in Dulbecco’s Modified Eagle’s medium (DMEM, Sigma-Aldrich-St. Louis, MO, USA) supplemented with 10% fetal bovine serum (Sigma-Aldrich-St. Louis, MO, USA) and 1% penicillin/streptomycin (Sigma-Aldrich- Louis, MO, USA). All cell incubations were done at 37 °C in a humidified atmosphere of 5% CO2.
Cell viability was assessed using, 3-(4,5-dimethylthiazol-2-yl)-2,5-diphenyltetrazolium bromide (MTT) assay as previously described. In summary, cancer cell lines or F180 were seeded in complete medium at the density of 3 × 10^3/well and 5 × 10^3/well respectively in 96 well flat-bottom plates. After 24 h, cells were incubated with the candidate compounds at the indicated concentration for (24, 48 or 72 h). DMSO was used as vehicle control and 4-Hydroxycoumarin was purchased from (Sigma-Aldrich, St. Louis, MO, USA) and Cisplatin from Hospira UK Ltd. At the end of treatment, the media were aspirated from each well and incubated with 200 µL of MTT tetrazolium dye (Sigma-Aldrich, St. Louis, MO, USA) at a final concentration of 0.5 mg/ml for 2 h at 37 °C. The reduced MTT crystals were solubilized in 200 µl/well of DMSO and the absorbance was measured at 570 nm using a microplate reader (Thermo-Scientific, Vantaa, Finland).

HCT116 = experiment: ROS-Glo H2O2 assay, HCT116; settings: HCT116, 6 h incubation
Source text: as §1
NADPH/NADP+ and ROS concentrations were measured using the NADP/NADPH-Glo Assay Kit (Promega, Madison, WI, USA) and ROS-Glo H2O2 Assay (Promega, Madison, WI, USA), respectively, based on the manufacturer instructions. In NADPH/NADP+ assay, CRC cells were seeded into a 96-well flat-bottomed plate and incubated overnight. On the following day, cells were treated with the testing compound or vehicle for 48 h. At the endpoint of treatment, the media were aspirated and replaced with 60 µl PBS/well, then cells were lysed in 60 µl base solution with 1% dodecyl (trimethyl) ammonium bromide (Sigma-Aldrich-St. Louis, MO, USA). […] Luminescence was measured after 30 minutes using Varioskan Flash multimode reader (Thermo Scientific). […] Luminescence was measured after 20 min incubation at room temperature.

Row | IC50 (HT-29 [2]) | IC50 (HT-29 [2]; Homo sapiens, HT-29, 72 h) | Compound | glucose uptake (HT-29 [1]) | generation of hydrogen peroxide (H2O2) and ROS (HCT116)
1 | 0.38 ± 0.044 µM | 0.53 µM | Cc1cc(=O)oc2cc(Nc3nc(-c4ccc(Br)cc4)cs3)ccc12 [Compound 9b, 7-(4-(4-Bromophenyl)thiazol-2-ylamino)-4-methyl-2H-chromen-2-one] | inhibited significantly | significantly increased
2 | 3.96 ± 0.506 µM | 2.56 µM | Cc1cc(=O)oc2cc(Nc3nc(-c4cccc([N+](=O)[O-])c4)cs3)ccc12 [Compound 9f, 4-Methyl-7-(4-(3-Nitrophenyl)thiazol-2-ylamino)-2H-chromen-2-one] | inhibited significantly | significantly increased
